Experimental data taken from patent US6677383B1, “Hydroxylation activated prodrugs” (De Montfort University, priority 1998, dated 2004).
Where two headings read alike, the source gives them in different places.

How the values were obtained:
[1] = MTT cytotoxicity assay, cell line expressing CYP1B1; details: Chinese hamster, V79mzhu1B1 cells (V79 cells that express CYP1B1)
Protocol: (§1) The cytotoxicity assay method used was a modification of the MTT cytotoxicity assay (Carmichael et al., 1987, Cancer Research, 47: 936). […] Compound stocks were made up as 100 mM in DMSO and stored for no more than one month at 4° C. The plates were then incubated at 37° C., 5% CO2, 100% humidity for a further 48 hours followed by washing by immersion 3 times in Dulbecco's PBS (phosphate buffered saline) A. 50 μl of RPMI 1640 w/o phenol red (Roswell Park Memorial Institute Medium 1640, Life Science International) with 2 mg/ml MTT was then added for four hours as above, excess MTT removed by aspiration and 125 μl of DMSO added on a vortex for 30 minutes to solubilize the product. The absorbance at A450 was recorded and the results expressed as a % survival of carrier only treated controls.

[2] = MTT cytotoxicity assay, parental cell line not expressing CYP1B1; details: Chinese hamster, V79mz cells (parental line that does not express CYP1B1)
Protocol: as §1

[3] = target: T1, CYP1B1 (microsomal preparation of human tumour tissue expressing the CYP1B1 enzyme) (Homo sapiens, UniProt Q16678); test: Metabolism studies with microsomal preparation of human tumour tissue, HPLC detection of the hydroxylated metabolite; details: tumour microsomes, NADPH, pH 7.6, 1 hour at 37° C., confirmed by synthesis of authentic metabolite
T1 sequence (Q16678 1-543): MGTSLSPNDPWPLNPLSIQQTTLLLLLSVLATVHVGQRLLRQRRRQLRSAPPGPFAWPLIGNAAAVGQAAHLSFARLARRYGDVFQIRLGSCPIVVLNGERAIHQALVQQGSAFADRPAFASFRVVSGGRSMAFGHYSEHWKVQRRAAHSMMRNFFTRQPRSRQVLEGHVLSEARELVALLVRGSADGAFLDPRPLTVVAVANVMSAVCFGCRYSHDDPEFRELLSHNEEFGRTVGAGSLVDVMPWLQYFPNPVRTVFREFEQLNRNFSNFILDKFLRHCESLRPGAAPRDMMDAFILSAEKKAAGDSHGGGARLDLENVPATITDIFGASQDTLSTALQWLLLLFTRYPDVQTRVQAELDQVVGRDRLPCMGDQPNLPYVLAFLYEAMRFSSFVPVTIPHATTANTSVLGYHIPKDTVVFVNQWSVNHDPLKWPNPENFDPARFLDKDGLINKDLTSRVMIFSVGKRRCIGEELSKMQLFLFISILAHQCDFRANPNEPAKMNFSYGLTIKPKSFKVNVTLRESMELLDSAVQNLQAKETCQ
Protocol: (§2) A microsomal preparation of human tumour tissue expressing the CYP1B1 enzyme was prepared essentially as described by the method of Barrie et al. (1989. J. Steroid Biochem., 6: 1191-1195)
(§3) Experiment were carried out at 37° C., under yellow light.
(§4) An array of 1.5 ml centrifuge tubes were set up in a water bath shaker under aerobic conditions. To each tube was then added 500 μl of pH 7.6 buffer (0.1 M NaK2PO4), followed by NADPH (5 μl of a 25 mM stock solution). The microsomal preparation (80 μl) was then added and the tubes preincubated for 5 minutes at 37° C. The prodrug substrate was then added (10 μl of a 5 mM stock solution) and incubated for 1 hour at 37° C. After 1 hour the tubes were transferred to an ice/water cooling bath (0° C.). The tubes were then centrifuged at 1 5,000 rpm for 30 minutes. A sample of the supernatant (100 μl) was then taken and analysed by HPLC.
(§5) HPLC conditions: Spherisorb C18 (25 cm×4.6 mm id), used without guard column. Flow rate 1 ml/min. Eluent 75% 0.1 M KH2PO4 and 25% acetonitrile.

[4] = target: T1, CYP1B1 (microsomal preparation of human tumour tissue expressing the CYP1B1 enzyme); details: pH 7.6
Protocol: as §2, §3, §4, §5

[5] = tested on: V79mz cells (parental cell line which does not express CYP1B1)
Protocol: as §1

[6] = tested on: V79mzhu1B1 cells (express the enzyme CYP1B1)
Protocol: as §1

[7] = tested on: V79mzhu1B1 cells (express the enzyme CYP1B1); test: MTT cytotoxicity assay, cell line expressing CYP1B1; details: V79 IC50 versus V791B1 IC50
Protocol: as §1

COc1ccc(/C=C(\C#N)c2cccnc2)cc1 [Compound IIa, (Z)-1-Cyano-1-(3-pyridyl)-2-(4-methoxyphenyl)ethene]
IC50 at 48 h [1]: 1.63 µM
IC50 at 48 h [2]: 1.81 µM
aromatic hydroxylation to hydroxylated metabolite [3]: converted to the hydroxylated metabolite (Z)-1-Cyano-1-(3-pyridyl)-2-(3-hydroxy-4-methoxyphenyl)ethene

COc1cc(C(=O)/C=C/c2ccc(O)cc2)cc(OC)c1OC [Compound VIII, (E)-1-(4-Hydroxyphenyl)-3-(3,4,5-trimethoxyphenyl)prop-1-en-3-one]
IC50 at 48 h [1]: 1.71 µM
IC50 at 48 h [2]: 1.81 µM

Oc1ccc(/C=C/c2cc(O)cc(O)c2)cc1 [Compound IIIc, (E)-(3,4′,5)-trihydroxystilbene]
aromatic hydroxylation to hydroxylated metabolite [4]: converted to the hydroxylated metabolite (E)-(3,3′,4,5′)-tetrahydroxystilbene

COc1ccc(/C=C/c2ccc(OC)cc2)cc1 [Compound IIIb, (E)-(4,4′)-Dimethoxystilbene]
IC50 [5]: 58.2 µM
IC50 [6]: 8.3 µM

COc1ccc(/C=C/C(=O)c2cc(OC)c(OC)c(OC)c2)cc1 [Compound VII, (E)-1-(4-Methoxyphenyl)-3-(3,4,5-trimethoxyphenyl)prop-1-en-3-one]
IC50 at 48 h [1]: 0.005 µM
fold more cytotoxic to the cell line expressing CYP1B1 than to the parental cell line not expressing this enzyme [7]: around 200 fold
IC50 at 48 h [2]: 1 µM
aromatic hydroxylation to hydroxylated metabolite [3]: converted to the hydroxylated metabolite (E)-1-(3-Hydroxy4-methoxyphenyl)-3-(3,4,5-trimethoxyphenyl)prop-1-en-3-one
